From patent US20160136192A1, “METHODS AND COMPOSITIONS FOR ENHANCING COGNITIVE PERFORMANCE” (ABBOTT LABORATORIES, priority 2013, published 2016)

System: NMDAR dependant hippocampal LTP
Assay: NMDAR dependant LTP (fEPSP amplitude) induced by weak tetanus, recorded on hippocampal brain slices in vitro with MEA
Type: cell-based, mice
Settings: mouse hippocampal slices, 10 stimulations at 100 Hz for 0.1 seconds

SMILES | effect on NMDAR dependant hippocampal LTP induced by weak tetanic stimulation (10 micromolar (μM)) | effect on NMDAR dependant hippocampal LTP induced by weak tetanic stimulation (15 micromolar) | effect on NMDAR dependant hippocampal LTP induced by weak tetanic stimulation (20 micromolar (μM)) | effect on NMDAR dependant hippocampal LTP induced by weak tetanic stimulation (30 micromolar (μM)) | effect on NMDAR dependant hippocampal LTP induced by weak tetanic stimulation (40 micromolar) | effect on NMDAR dependant hippocampal LTP induced by weak tetanic stimulation (50 micromolar)
C[N+](C)(C)CCO.[Cl-] [choline chloride, Choline chloride] | did not produce any effect | did not produce any effect | did not produce any effect | significantly enhanced | significantly enhanced | significantly enhanced
CCCCCCCC/C=C\CCCCCCCC(=O)OCC [oleic acid (ethyl ester), Oleic acid ethyl ester] | did not produce any effect | – | significantly enhanced | significantly enhanced | – | –
